Test results from patent US20240158446A1, “CYCLIC COMPOUND HAVING SELECTIVE INHIBITORY ACTION ON KRAS OVER HRAS AND NRAS” (CHUGAI SEIYAKU KABUSHIKI KAISHA, priority 2021, published 2024).

Tests used:
[1] = target: GDP-bound KRAS wild-type protein (Homo sapiens, UniProt P01116); assay: Binding to KRAS by surface plasmon resonance (SPR), Single Cycle Kinetics; details: SPR Single Cycle Kinetics, GDP-bound KRAS wild-type protein, 1:1 binding model; read-out: KRAS KD
[2] = target: GDP-bound NRAS wild-type protein (Homo sapiens, UniProt P01111); assay: Binding to NRAS by surface plasmon resonance (SPR), Single Cycle Kinetics; details: SPR KD ratio NRAS/KRAS, class symbols
GDP-bound NRAS wild-type protein, sequence (P01111 whole entry): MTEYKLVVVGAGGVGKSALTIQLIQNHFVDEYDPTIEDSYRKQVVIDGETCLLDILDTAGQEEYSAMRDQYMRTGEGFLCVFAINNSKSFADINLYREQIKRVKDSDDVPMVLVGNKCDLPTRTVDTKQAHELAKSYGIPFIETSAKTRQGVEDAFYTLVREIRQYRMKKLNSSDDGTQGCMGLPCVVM

[3] = target: GDP-bound HRAS wild-type protein (Homo sapiens, UniProt P01112); assay: Binding to HRAS by surface plasmon resonance (SPR), Single Cycle Kinetics; details: SPR KD ratio HRAS/KRAS, class symbols
GDP-bound HRAS wild-type protein, sequence (P01112 whole entry): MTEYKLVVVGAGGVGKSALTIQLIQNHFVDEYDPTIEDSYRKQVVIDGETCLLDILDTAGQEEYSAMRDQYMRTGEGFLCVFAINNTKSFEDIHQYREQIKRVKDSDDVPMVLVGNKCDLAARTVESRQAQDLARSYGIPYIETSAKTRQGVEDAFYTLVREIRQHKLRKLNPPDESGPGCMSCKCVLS

GDP-bound KRAS wild-type protein, sequence (P01116 whole entry): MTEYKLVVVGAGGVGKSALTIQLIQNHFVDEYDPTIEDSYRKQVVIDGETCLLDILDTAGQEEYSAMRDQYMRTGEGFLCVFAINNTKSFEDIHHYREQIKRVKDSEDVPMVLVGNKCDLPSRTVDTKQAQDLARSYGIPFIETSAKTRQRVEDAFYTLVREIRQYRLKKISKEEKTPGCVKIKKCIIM

| SMILES | Kd [1] [nM] | NRAS/KRAS (ratio of KD value with respect to GDP-bound NRAS wild-type protein to KD value with respect to KRAS) [2] | HRAS/KRAS (ratio of KD value with respect to GDP-bound HRAS wild-type protein to KD value with respect to KRAS) [3] |
| --- | --- | --- | --- |
| C#CC[C@H]1C(=O)N[C@@H]([C@@H](C)CC)C(=O)N(C)CC(=O)N(C)[C@H]2C/C=C\CCN(C2=O)[C@@H](Cc2ccc(C(F)(F)F)cc2)C(=O)N(C)CC(=O)N[C@@H](CCc2ccc(C(F)(F)F)c(OC)c2)C(=O)N2CC[C@H]2C(=O)NC2(CC(C)(C)C2)C(=O)N(C)[C@@H](C2CCCC2)C(=O)N(C)[C@H](C(=O)N(C)C)CC(=O)N1C [PP2909] | 1 | B (a compound having 3 or more and less than 10 is denoted as B) | B (a compound having 3 or more and less than 10 is denoted as B) |
| C#CC[C@H]1C(=O)N[C@@H]([C@@H](C)CC)C(=O)N(C)CC(=O)N(C)[C@H]2C/C=C\CCN(C2=O)[C@@H](Cc2ccc(C(F)(F)F)cc2)C(=O)N(C)CC(=O)N[C@@H](CCc2ccc(C(F)(F)F)c(OC)c2)C(=O)N2CC[C@H]2C(=O)NC2(CCC2)C(=O)N(C)[C@@H](C2CCCC2)C(=O)N(C)[C@H](C(=O)N(C)C)CC(=O)N1C [PP2911] | 0.52 | A (a compound having 10 or more and less than 20 is denoted as A) | B (a compound having 3 or more and less than 10 is denoted as B) |
| CCC[C@H]1C(=O)N[C@@H]([C@@H](C)CC)C(=O)N(C)CC(=O)N(C)[C@H]2C/C=C\CCN(C2=O)[C@@H](Cc2ccc(C(F)(F)F)cc2)C(=O)N(C)CC(=O)N[C@@H](CCc2ccc3ccn(C)c3c2)C(=O)N2C[C@H](OCC)C[C@H]2C(=O)NC2(CC(C)(C)C2)C(=O)N(C)[C@@H](C(CC)CC)C(=O)N(C)[C@H](C(=O)N(C)C)CC(=O)N1C [PP2912] | 8.7 | AA (a compound having 20 or more is denoted as AA) | A (a compound having 10 or more and less than 20 is denoted as A) |
| CCCN(C)C(=O)[C@@H]1CC(=O)N(C)[C@@H](CC)C(=O)N[C@@H]([C@@H](C)CC)C(=O)N(C)CC(=O)N(C)[C@H]2C/C=C\CCN(C2=O)[C@@H](Cc2ccc(C(F)(F)F)cc2)C(=O)N(C)CC(=O)N[C@@H](CCc2cc(F)c(C(F)(F)F)c(F)c2)C(=O)N2C[C@H](OCC3CC3)C[C@H]2C(=O)NC2(CCC2)C(=O)N(C)[C@@H](C2CCCC2)C(=O)N1C [PP2913] | 0.17 | A (a compound having 10 or more and less than 20 is denoted as A) | A (a compound having 10 or more and less than 20 is denoted as A) |
| CCCN(C)C(=O)[C@@H]1CC(=O)N(C)[C@@H](CC)C(=O)N[C@@H]([C@@H](C)CC)C(=O)N(C)CC(=O)N(C)[C@H]2C/C=C\CCN(C2=O)[C@@H](Cc2ccc(C(F)(F)F)cc2)C(=O)N(C)CC(=O)N[C@@H](CCc2cc(F)c(C(F)(F)F)c(F)c2)C(=O)N2CC[C@H]2C(=O)NC2(CCC2)C(=O)N(C)[C@@H](C2CCCC2)C(=O)N1C [PP2915] | 1.2 | A (a compound having 10 or more and less than 20 is denoted as A) | A (a compound having 10 or more and less than 20 is denoted as A) |
| CCC(CC)[C@H]1C(=O)N(C)[C@H](C(=O)N(C)C)CC(=O)N(C)[C@@H](COC)C(=O)N[C@@H]([C@@H](C)CC)C(=O)N(C)CC(=O)N(C)[C@H]2C/C=C\CCN(C2=O)[C@@H](Cc2ccc(C(F)(F)F)cc2)C(=O)N(C)CC(=O)N[C@@H](CCc2cc(F)c(C(F)(F)F)c(F)c2)C(=O)N2CCCC[C@H]2C(=O)NC2(CC(C)(C)C2)C(=O)N1C [PP2916] | 1.3 | A (a compound having 10 or more and less than 20 is denoted as A) | A (a compound having 10 or more and less than 20 is denoted as A) |
| CCC(CC)[C@H]1C(=O)N(C)[C@H](C(=O)N(C)C)CC(=O)N(C)[C@@H](COC)C(=O)N[C@@H]([C@@H](C)CC)C(=O)N(C)CC(=O)N(C)[C@H]2C/C=C\CCN(C2=O)[C@@H](Cc2ccc(C(F)(F)F)cc2)C(=O)N(C)CC(=O)N[C@@H](CCc2cc(F)c(C(F)(F)F)c(F)c2)C(=O)N2CCOC[C@H]2C(=O)NC2(CC(C)(C)C2)C(=O)N1C [PP2917] | 1.4 | AA (a compound having 20 or more is denoted as AA) | A (a compound having 10 or more and less than 20 is denoted as A) |

The next lines start with results.

| Kd [1] [nM] | SMILES | NRAS/KRAS (ratio of KD value with respect to GDP-bound NRAS wild-type protein to KD value with respect to KRAS) [2] | HRAS/KRAS (ratio of KD value with respect to GDP-bound HRAS wild-type protein to KD value with respect to KRAS) [3] |
| --- | --- | --- | --- |
| 1.8 | CCC(CC)[C@H]1C(=O)N(C)[C@H](C(=O)N(C)C)CC(=O)N(C)[C@@H](COC)C(=O)N[C@@H]([C@@H](C)CC)C(=O)N(C)CC(=O)N(C)[C@H]2C/C=C\CCN(C2=O)[C@@H](Cc2ccc(C(F)(F)F)cc2)C(=O)N(C)CC(=O)N[C@@H](CCc2cc(F)c(C(F)(F)F)c(F)c2)C(=O)N2CC[C@H]2C(=O)NC2(CC(C)(C)C2)C(=O)N1C [PP2918] | AA (a compound having 20 or more is denoted as AA) | A (a compound having 10 or more and less than 20 is denoted as A) |
| 4 | CCC[C@H]1C(=O)N[C@@H]([C@@H](C)CC)C(=O)N(C)CC(=O)N(C)[C@H]2C/C=C\CCN(C2=O)[C@@H](Cc2ccc(C(F)(F)F)cc2)C(=O)N(C)CC(=O)N[C@@H](CCc2ccc(Cl)c(Cl)c2)C(=O)N2CCOC[C@H]2C(=O)NC2(CC(C)(C)C2)C(=O)N(C)[C@@H](C(CC)CC)C(=O)N(C)[C@H](C(=O)N(C)C)CC(=O)N1C [PP2920] | AA (a compound having 20 or more is denoted as AA) | A (a compound having 10 or more and less than 20 is denoted as A) |
| 6.9 | CCC[C@H]1C(=O)N[C@@H]([C@@H](C)CC)C(=O)N(C)CC(=O)N(C)[C@H]2C/C=C\CCN(C2=O)[C@@H](Cc2ccc(C(F)(F)F)cc2)C(=O)N(C)CC(=O)N[C@@H](CCc2ccc(Cl)c(Cl)c2)C(=O)N2CC[C@H]2C(=O)NC2(CC(C)(C)C2)C(=O)N(C)[C@@H](C(CC)CC)C(=O)N(C)[C@H](C(=O)N(C)C)CC(=O)N1C [PP2921] | AA (a compound having 20 or more is denoted as AA) | A (a compound having 10 or more and less than 20 is denoted as A) |
| 4.8 | CCC[C@H]1C(=O)N[C@@H]([C@@H](C)CC)C(=O)N(C)CC(=O)N(C)[C@H]2C/C=C\CCN(C2=O)[C@@H](Cc2ccc(C(F)(F)F)cc2)C(=O)N(C)CC(=O)N[C@@H](CCc2ccc(C(F)(F)F)c(Cl)c2)C(=O)N2CCCC[C@H]2C(=O)NC2(CC(C)(C)C2)C(=O)N(C)[C@@H](C(CC)CC)C(=O)N(C)[C@H](C(=O)N(C)C)CC(=O)N1C [PP2928] | AA (a compound having 20 or more is denoted as AA) | A (a compound having 10 or more and less than 20 is denoted as A) |
| 2.3 | CCC[C@H]1C(=O)N[C@@H]([C@@H](C)CC)C(=O)N(C)CC(=O)N(C)[C@H]2C/C=C\CCN(C2=O)[C@@H](Cc2ccc(C(F)(F)F)cc2)C(=O)N(C)CC(=O)N[C@@H](CCc2ccc(C(F)(F)F)c(Cl)c2)C(=O)N2CCOC[C@H]2C(=O)NC2(CC(C)(C)C2)C(=O)N(C)[C@@H](C(CC)CC)C(=O)N(C)[C@H](C(=O)N(C)C)CC(=O)N1C [PP2929] | AA (a compound having 20 or more is denoted as AA) | A (a compound having 10 or more and less than 20 is denoted as A) |
| 2 | CCC[C@H]1C(=O)N[C@@H]([C@@H](C)CC)C(=O)N(C)CC(=O)N(C)[C@H]2C/C=C\CCN(C2=O)[C@@H](Cc2ccc(C(F)(F)F)cc2)C(=O)N(C)CC(=O)N[C@@H](CCc2ccc(C(F)(F)F)c(OC)c2)C(=O)N2CCCC[C@H]2C(=O)NC2(CC(C)(C)C2)C(=O)N(C)[C@@H](C(CC)CC)C(=O)N(C)[C@H](C(=O)N(C)C)CC(=O)N1C [PP2934] | AA (a compound having 20 or more is denoted as AA) | A (a compound having 10 or more and less than 20 is denoted as A) |
| 1.5 | CCC[C@H]1C(=O)N[C@@H]([C@@H](C)CC)C(=O)N(C)CC(=O)N(C)[C@H]2C/C=C\CCN(C2=O)[C@@H](Cc2ccc(C(F)(F)F)cc2)C(=O)N(C)CC(=O)N[C@@H](CCc2ccc(C(F)(F)F)c(OC)c2)C(=O)N2CCOC[C@H]2C(=O)NC2(CC(C)(C)C2)C(=O)N(C)[C@@H](C(CC)CC)C(=O)N(C)[C@H](C(=O)N(C)C)CC(=O)N1C [PP2935] | A (a compound having 10 or more and less than 20 is denoted as A) | A (a compound having 10 or more and less than 20 is denoted as A) |
| 2.7 | CCC[C@H]1C(=O)N[C@@H]([C@@H](C)CC)C(=O)N(C)CC(=O)N(C)[C@H]2C/C=C\CCN(C2=O)[C@@H](Cc2ccc(C(F)(F)F)cc2)C(=O)N(C)CC(=O)N[C@@H](CCc2ccc(C(F)(F)F)c(OC)c2)C(=O)N2CC[C@H]2C(=O)NC2(CC(C)(C)C2)C(=O)N(C)[C@@H](C(CC)CC)C(=O)N(C)[C@H](C(=O)N(C)C)CC(=O)N1C [PP2936] | AA (a compound having 20 or more is denoted as AA) | A (a compound having 10 or more and less than 20 is denoted as A) |
